Source: US4855497A, “Novel diamine derivatives” (Chugai Seiyaku Kabushiki Kaisha, priority 1985, dated 1989)

How the values were obtained:
[1] = system: Chloroform-Induced Arrythmia; assay: Activity against chloroform-induced arrythmia in rats (prevention of ventricular fibrillation); assay type: in vivo, Sprague-Dowley male rats; conditions: 30 min prior to chloroform; for responders at 1 mg/kg: Rattus norvegicus, po, 0.5 h, not starved rats, 1 mg/kg P.O., read-out: Percent prevention (ventricular fibrillation), not starved
Procedure: Activity Aganist Chloroform-Induced Arrythmia in Rats
The following procedures were substantially in accordance with the method of Erker and Baker (Arch. Int. Pharmacodyn., 243, 97-102, 1980). Aminophylline (20 mg/kg) was injected intramuscularly into two groups of Sprague-Dowley male rats (3-4 wk. old, 7 animals per group) weighing about 100 g on average, one group having been starved for 24 hours and the other group not starved. Thirty minutes after the injection, the animals were put into a 4,000-ml glass beaker with a lid that contained gauze impregnated with […] of chloroform. Fifty minutes later, the animals were recovered from the beaker and their chests were incised to check their hearts for the presence of ventricular fibrillation. The features of their cardiac rhythm were examined by the electrocardiogram. When no distinct fibrillation was observed, the heart was touched with tweezers. The heart was identified as fibrillar when rapid irregular twitchings occured on the surface of ventricles and continued for at least 5 seconds after chest incision or mechanical stimulation.
Selected compounds suspended in 3% gum arabic were administered in various doses to the rats either intraperitoneally (i.P.) or perorally (P.O.) 30 minutes prior to treatment with chloroform. The percent prevention of ventricular fibrillation was determined for each rat. Only a 3% gum arabic solution was administered to the control group.

[2] = system: Aconitine-Induced Arrythmia; assay: Activity against aconitine-induced arrythmia in rats; assay type: in vivo, Sprague-Dowley male rats; conditions: aconitine 1 μg/kg/min; for Time required for ventricular extrasystole to occur: untreated 14.3 min; for Time required for ventricular fibrillation to occur: untreated 35.3 min
Procedure: Activity Against Aconitine-Induced Arrythmia in Rats
Using Sprague-Dowley male rats (9-10 wk. old, two animals per group) weighing about 350 g on average, the following experiment was conducted substantially in compliance with the method of Vargftig et al. (Europ. J. Pharmacol., 6, 49, 1969).
The animals were anesthetized by intraperitoneal administration of 1 g/kg of urethane. A polyethylene cannula was inserted into both the femoral artery and vein of each animal; the drug was administered through the femoral vein while the blood pressure was measured at the femoral artery.
While the aconitine solution was continuously infused into the vein at a rate of 1 μg/kg/min, a selected compound was administered intravenously at 5-minute intervals. In order to prevent the aconitine-induced dyspnea from interfering with the experimental results, 0.2 mg/kg of d-tubocurarine was administered intravenously to each animal, which then was subjected to artificial respiration through a cannula inserted into the trachea (80 breathings/min, with 4 ml of air supplied by a single ventillation).
Identification of arrythmia was made by the ECG in the second induction period; the appearance of a QRS complex with sharply downward deflections was used as an indication of ventricular arrythmia and observation was continued until ventricular fibrillation appeared. The results are shown in Table 3 in terms of the times required for ventricular extrasystole and ventricular fibrillation to occur.

[3] = system: Ouabain-Induced Arrythmia; assay: Activity against ouabain-induced arrythmia in guinea pigs; assay type: in vivo, Hartly male guinea pigs; conditions: ouabain 5 μg/kg/min; for Time required for ventricular extrasystole to occur: untreated 28.5 min; for Time required for ventricular fibrillation to occur: untreated 35.1 min; for Time required for cardiac arrest to occur: untreated 41.2 min
Procedure: Activity Against Ouabain-Induced Arrythmia in Guinea Pigs
Hartly male guinea pigs (5-6 wk. old, two animals per group) weighing about 350 g on average were anesthetized by intraperitoneal administration of 1.2 g/kg of urethane. A polyethylene cannula was inserted into both the cervical vein and the carotid artery; the drug was administered through the cervical vein while the blood pressure was measured at the carotid artery. A selected test compound was administered 5 minutes before the sustained intravenous infusion of the ouabain solution (5 μg/kg/min) as described in J. Pharmacol. Exp. Ther., 136, 227, 1962). Identification of arrythmia was made by the ECG in the second induction period; the appearance of a QRS complex with sharply downward deflictions was used as an indication of ventricular arrythmia and observation was continued until ventricular fibrillation and cardiac arrest appeared. The results are shown in Table 4 in terms of the times required for ventricular extrasystole, ventricular fibrillation and cardiac arrest to occur.

[4] = system: Acetylcholine; assay: Activity against acetylcholine (I): inhibition of acetylcholine-induced contraction of isolated ilea; parameters: species or system SD/Slc male rats; conditions: 10^-4 M; 10^-6 M acetylcholine; isolated rat ilea
Procedure: Activity Against Acetylcholine (I)
SD/Slc male rats (10-mo. old, four animals per group) were clubbed dead and their ilea were immediately extracted. The ilea were suspended under a load of 1 g in a Krebs-Henseleit solution oxygenated with a mixture of 95% O2 +5% CO2 at 27° C., and the ileal reaction was measured isotonically.
The anti-cholinergic activity of each of the compounds tested was determined in terms of percent inhibition against the contractive reaction of 10^-6 M of acetylcholine (causing 60-70% of the maximum contractive reaction of acetylcholine).

[5] = system: Blood Sugar Level; assay: Effect on blood sugar level; assay type: in vivo, SD/Slc male rats; conditions: starved overnight
Procedure: Effect on Blood Sugar Level
After starving SD/Slc male rats (body weight, 250 g; 6 animals per group) overnight, 20-μl blood samples were drawn from the tail vein of each rat while it was not anesthetized. Records were taken of the sugar level in each blood sample. A selected compound of the present invention was suspended in 3% gum arabic and the suspension was administered perorally to each rat in an amount of 50 or 200 mg/kg. At 2, 4 and 6 hours of the administration, blood samples were taken and their blood sugar levels were measured. Measurements of blood sugar levels were conducted with a New Blood Sugar Test (Boehringer, Mannheim).
To the control group, a 3% gum arabic solution was administered, and diisopyramide was administered as a comparative drug.

[6] = system: sleeping induced by hexobarbital; assay: Effect on the time of sleeping induced by hexobarbital; assay type: in vivo, ddY/Slc male rats; conditions: 5 mg/kg perorally; ** p < 0.05 vs untreated (53.9 ± 2.7)
Procedure: Effect on the Time of Sleeping Induced by Hexobarbital
A selected compound of the present invention was administered perorally to ddY/Slc male rats (5-6 wk. old, 10 animals per group) in an amount of 50 or 100 mg/kg. One hour later, […] of hexobarbital was administered intraperitoneally to each animal, thereby causing the loss of orthogonal reflex. The time required for the recovery of orthogonal reflex was measured for each animal.
As comparative drugs, 50 or 100 mg/kg of disopyramide and 5 mg/kg of diazepam were administered perorally.

[7] = peroral, clinical; cited from earlier work

Row | SMILES | responders at 1 mg/kg [1] [%] | Time required for ventricular extrasystole to occur ([2]; 5 mg/kg intravenously) [min] | Time required for ventricular fibrillation to occur ([2]; 5 mg/kg intravenously) [min] | Time required for ventricular extrasystole to occur ([3]; 10 mg/kg via cervical vein) [min] | Time required for ventricular fibrillation to occur ([3]; 10 mg/kg via cervical vein) [min] | Time required for cardiac arrest to occur ([3]; 10 mg/kg via cervical vein) [min] | Percent inhibition (contractive reaction of acetylcholine) [4] [%] | other results
1 | Cc1cccc(C)c1NC(=O)CCNCCCN(C)C [Compound No. 2, 3-(dimethylaminopropylamino)-2',6'-dimethylpropionanilide] | 71.4 | 25.5 | 36.5 | 38.1 | 43.4 | 48.7 | 7 | Time required for ventricular extrasystole to occur ([3]; 5 mg/kg via cervical vein): 31.0 min; Time required for ventricular fibrillation to occur ([3]; 5 mg/kg via cervical vein): 38.5 min; Time required for cardiac arrest to occur ([3]; 5 mg/kg via cervical vein): 39.5 min; Blood sugar level, 0 hr (mean ± S.E.) ([5]; 50 mg/kg perorally): 77.6 ± 5.5 mg/dL; Blood sugar level, 2 hr (mean ± S.E.) ([5]; 50 mg/kg perorally): 61.3 ± 2.2 mg/dL; Blood sugar level, 4 hr (mean ± S.E.) ([5]; 50 mg/kg perorally): 63.7 ± 4.5 mg/dL; Blood sugar level, 6 hr (mean ± S.E.) ([5]; 50 mg/kg perorally): 64.4 ± 4.4 mg/dL; Blood sugar level, 0 hr (mean ± S.E.) ([5]; 200 mg/kg perorally): 76.1 ± 2.4 mg/dL; Blood sugar level, 2 hr (mean ± S.E.) ([5]; 200 mg/kg perorally): 52.9 ± 3.2 mg/dL; Blood sugar level, 4 hr (mean ± S.E.) ([5]; 200 mg/kg perorally): 58.3 ± 2.6 mg/dL; Blood sugar level, 6 hr (mean ± S.E.) ([5]; 200 mg/kg perorally): 56.8 ± 1.7 mg/dL
2 | CCN(CC)CCCNCCC(=O)Nc1c(C)cccc1C [Compound No. 3, 3-(diethylaminopropylamino)-2',6'-dimethylpropionanilide] | 100 | 27.4 | > 120.0 | 34.4 | 42.2 | 48.4 | 28 | 
3 | Cc1cccc(C)c1NC(=O)CCNCCNC(C)C [Compound No. 4, 3-(isopropylaminoethylamino)-2', 6'-dimethylpropionanilide] | 100 |  |  | 42.5 | 59.5 | 66.5 | 0 | Time required for ventricular extrasystole to occur ([2]; 10 mg/kg intravenously): 34.4 min; Time required for ventricular fibrillation to occur ([2]; 10 mg/kg intravenously): > 120.0 min; Blood sugar level, 0 hr (mean ± S.E.) ([5]; 50 mg/kg perorally): 81.2 ± 2.4 mg/dL; Blood sugar level, 2 hr (mean ± S.E.) ([5]; 50 mg/kg perorally): 60.3 ± 3.4 mg/dL; Blood sugar level, 4 hr (mean ± S.E.) ([5]; 50 mg/kg perorally): 57.5 ± 1.6 mg/dL; Blood sugar level, 6 hr (mean ± S.E.) ([5]; 50 mg/kg perorally): 61.5 ± 0.6 mg/dL; Blood sugar level, 0 hr (mean ± S.E.) ([5]; 200 mg/kg perorally): 69.1 ± 2.9 mg/dL; Blood sugar level, 2 hr (mean ± S.E.) ([5]; 200 mg/kg perorally): 57.4 ± 3.0 mg/dL; Blood sugar level, 4 hr (mean ± S.E.) ([5]; 200 mg/kg perorally): 58.5 ± 2.1 mg/dL; Blood sugar level, 6 hr (mean ± S.E.) ([5]; 200 mg/kg perorally): 59.0 ± 1.8 mg/dL
4 | CN1C(=O)CN=C(c2ccccc2)c2cc(Cl)ccc21 [Diazepam] |  |  |  |  |  |  |  | Time of sleeping (mean ± S.E.) [6]: 136.4 ± 5.8 min
5 | CCN(CC)CC(=O)Nc1c(C)cccc1C [Lidocaine, reference compound] |  |  |  |  |  |  |  | Percent prevention (ventricular fibrillation), starved ([1]; starved rats, 20 mg/kg i.P.): 77.1%; drug level in blood [7]: too low to attain the desired effectiveness
6 | Cc1cccc(C)c1NC(=O)CCNCCCN(C(C)C)C(C)C [compound 11] | 85.7 | 26.2 | 73.8 | 35.3 | 45.3 | 52.4 | 0 | Time required for ventricular extrasystole to occur ([2]; 10 mg/kg intravenously): 44.2 min; Time required for ventricular fibrillation to occur ([2]; 10 mg/kg intravenously): > 120.0 min; Blood sugar level, 0 hr (mean ± S.E.) ([5]; 50 mg/kg perorally): 71.3 ± 2.9 mg/dL; Blood sugar level, 2 hr (mean ± S.E.) ([5]; 50 mg/kg perorally): 61.8 ± 3.1 mg/dL; Blood sugar level, 4 hr (mean ± S.E.) ([5]; 50 mg/kg perorally): 64.0 ± 2.2 mg/dL; Blood sugar level, 6 hr (mean ± S.E.) ([5]; 50 mg/kg perorally): 63.8 ± 1.5 mg/dL; Blood sugar level, 0 hr (mean ± S.E.) ([5]; 200 mg/kg perorally): 62.3 ± 2.7 mg/dL; Blood sugar level, 2 hr (mean ± S.E.) ([5]; 200 mg/kg perorally): 52.0 ± 3.5 mg/dL; Blood sugar level, 4 hr (mean ± S.E.) ([5]; 200 mg/kg perorally): 53.8 ± 3.8 mg/dL; Blood sugar level, 6 hr (mean ± S.E.) ([5]; 200 mg/kg perorally): 63.6 ± 1.5 mg/dL
7 | Cc1cccc(C)c1NC(=O)CCNCCCN(CC(C)C)CC(C)C [compound 12] | 85.7 | 26.2 | 30.2 | 45.4 | 48.2 | 56.6 |  | 
8 | Cc1cccc(C)c1NC(=O)CCNCCCNC1CCCCCCC1 [compound 14] | 85.7 |  |  |  |  |  |  | 
9 | Cc1cccc(C)c1NC(=O)CCCNCCCN(CC(C)C)CC(C)C [compound 18] |  |  |  |  |  |  | 0 | 
10 | CCc1cccc(CC)c1NC(=O)CCNCCCN(CC(C)C)CC(C)C [compound 31] | 100 | 26.1 | > 90.0 |  |  |  |  | Time required for ventricular extrasystole to occur ([3]; 5 mg/kg via cervical vein): 34.1 min; Time required for ventricular fibrillation to occur ([3]; 5 mg/kg via cervical vein): 51.0 min; Time required for cardiac arrest to occur ([3]; 5 mg/kg via cervical vein): 57.8 min
11 | CCc1cccc(CC)c1NC(=O)CCNCCCCCN(CC(C)C)CC(C)C [compound 35] | 100 | 24.5 | 84.5 |  |  |  | 9 | Time required for ventricular extrasystole to occur ([3]; 5 mg/kg via cervical vein): 45.4 min; Time required for ventricular fibrillation to occur ([3]; 5 mg/kg via cervical vein): 48.4 min; Time required for cardiac arrest to occur ([3]; 5 mg/kg via cervical vein): 56.2 min
